{"source": "patent US12383710B2", "about": "(Urotronic, Inc., priority 2019, dated 2025)", "key": {"[1]": {"test": "stability under ethylene oxide sterilization, heating, and aging with paclitaxel", "details": "reacted with paclitaxel"}, "[2]": {"test": "BPH Preclinical Study 4: tissue and plasma PK, histology"}}}
{"smiles": "O=C(O)c1ccccc1", "note": "[benzoic acid]", "values": [{"measurement": "stability under ethylene oxide sterilization, heating, and aging process", "setting": "[1]", "value": "not stable"}]}
{"smiles": "CC(=O)O[C@H]1C(=O)[C@@]2(C)[C@H]([C@H](OC(=O)c3ccccc3)[C@]3(O)C[C@H](OC(=O)[C@H](O)[C@@H](NC(=O)c4ccccc4)c4ccccc4)C(C)=C1C3(C)C)[C@]1(OC(C)=O)CO[C@@H]1C[C@@H]2O", "note": "[paclitaxel]", "values": [{"measurement": "prostate tissue drug concentration, maximum dose arm vs standard dose", "setting": "[2]; 28 days", "value": 4.5, "unit": "times higher"}, {"measurement": "prostatic urethra tissue drug concentration, maximum dose arm vs standard dose", "setting": "[2]; 28 days", "value": 11, "unit": "times higher"}, {"measurement": "prostate tissue drug concentration, maximum dose arm vs standard dose", "setting": "[2]; 70 days", "value": 23, "unit": "times higher"}, {"measurement": "prostatic urethra tissue drug concentration, maximum dose arm vs standard dose", "setting": "[2]; 70 days", "value": 23, "unit": "times higher"}, {"measurement": "clinical abnormalities", "setting": "[2]; all animals, duration of the study", "value": "No significant clinical abnormalities"}, {"measurement": "increase of urethral luminal diameter as a result of commissurotomy", "setting": "[2]; did not change between 7 days and 70 days", "value": "approximately 50%"}, {"measurement": "histology of the prostate", "setting": "[2]; maximum dose animals, 28 days, slower healing relative to standard dose and control", "value": "ongoing healing"}, {"measurement": "abnormalities or complications", "setting": "[2]; maximum dose treatment arm, 19.6 mg of paclitaxel", "value": "no abnormalities or complications"}, {"measurement": "plasma paclitaxel concentration", "setting": "[2]; maximum dose, 12 hour and later", "value": "BLOQ"}, {"measurement": "nonurethral close proximity tissue sample concentrations", "setting": "[2]; most samples, 28 days and beyond", "value": "at or below the limit of quantification"}, {"measurement": "plasma paclitaxel concentration", "setting": "[2]; standard dose, all time-points (1, 3, 7, 12 hours, 1, 3, 7, 14, 28 days)", "value": "BLOQ"}]}
